Source: paper PMC9896555, “Cyclic Acetals as Novel Long-Lasting Mosquito Repellents” (Journal of Agricultural and Food Chemistry, 2023)
Like-named read-outs stand apart in the source and are kept apart here.

Columns and labels:
Aedes albopictus [1] = assay: Effective dose / protection efficacy, human-bait technique; format: in vivo; conditions: for 100% PE: Table S1; for Protection efficacy (dose to obtain complete protection (100%) from bite attempts): applied on skin of volunteers, 3 min exposure; for pest or weed control at 0.081 µg/cm2, 0.081 µg/cm2 / pest or weed control at 0.17 µg/cm2, 0.17 µg/cm2 / pest or weed control at 0.33 µg/cm2, 0.33 µg/cm2 / pest or weed control at 0.5 µg/cm2, 0.5 µg/cm2 / pest or weed control at 0.83 µg/cm2, 0.83 µg/cm2 / pest or weed control at 1.7 µg/cm2, 1.7 µg/cm2 / pest or weed control at 8.3 µg/cm2, 8.3 µg/cm2 / pest or weed control at 16.7 µg/cm2, 16.7 µg/cm2 / pest or weed control at 83.3 µg/cm2, 83.3 µg/cm2: Aedes albopictus, topical, read-out: Protection efficacy PE%
Experimental: The repellence of DEET, Icaridin (both supplied by Istituto Biochimico VEBI s.r.l.), acetals, and the synthesized hydroxyacetals was evaluated againstAedes albopictususing the human-bait technique (to simulate the condition of human skin on which repellents will be applied).[22]A. albopictuswas reared and tested at 26 ± 2 °C, ≥60 ± 10% relative humidity (RH), and at 14:10 h light/dark photoperiod, within Plexiglas cylindrical laboratory cages (35 cm diameter, 60 cm length) with one end closed by a net. During the tests, cages contained ≈150 nulliparous, 4–7 day-old, nonblood-fed females. For each compound to be tested, up to six volunteers participated in the trial.
The study was approved by the Regional Ethics Committee for Clinical Trials of Tuscany Region with the registered number 20383. Volunteers agreed to take part in the experiments following informed consent; only volunteers non-allergic to mosquito bites participated in the trials. On the day of the bioassay, they had no contact with lotions, perfumes, oils, or perfumed soaps. They wore latex surgical gloves, in which a dorsal square area of 30 cm^2 was cut open. Mosquito-exposed skin was treated with 50 μL of ethanol, as the negative hand control. The other hand was treated with 50 μL of the tested compounds in ethanol solution (dosages corresponding to 0.081, 0.17, 0.33, 0.5, 0.83, 1.7, 8.3, 16.7, and 83.3 μg/cm^2). Both hands were presented in the same test cage. The number of probing mosquitoes in a 3 min exposure period was recorded. During each test, the control and the treated hand were presented interchanged to verify the mosquitoes’ readiness to bite. Trials were considered valid only if at least 30 mosquitoes performed probing behavior on the control hand before each repellent dosage was tested. The protection efficacy (PE %) obtained from all replicates was calculated, according to the WHO guidelines[31] using this formula [drawing 1]
To evaluate the protection efficacy, volunteers applied increasing doses of the compounds to the skin on the back of their hands (30 cm^2, while the rest was covered with a rubber glove) and counted the number of mosquitoes attempting to bite; the solvent only was used on the control hand. The protection (percentage of repelled mosquitoes) was calculated as reported in the Material and Methods section.

Aedes albopictus [2] = assay: Protection time at 0.17 mg/cm2, human-bait technique; format: in vivo; conditions: for Average PT >95% (% coefficient of variation) / Estimated 100% PT (complete protection time, mean±SE): at the dose of 0.17mg/cm2; for Estimated 100% PT (complete protection time, mean±SE): Kaplan–Meier estimate; for Protection time (95% protection): dose of 0.17 mg/cm^2, tests ended after 8 h; for pest or weed control at 0.17 mg/cm2, 0.17 mg/cm2: Aedes albopictus, topical, read-out: Protection time PE%
Experimental: To evaluate the protection time of derivatives, the PE % was measured with 100 μL of a 5% ethanol solution, corresponding to 0.17 mg/cm^2 of exposed skin, under the same laboratory conditions. Mosquito-exposed skin was treated with 100 μL of ethanol, as the negative hand control. For each volunteer (up to 8), the test was performed every hour, up to 8 h from the application. The protection time of DEET and Icaridin was measured under the same conditions. Since these trials were run in parallel with those aimed to profile the cytotoxicity of the compounds (paragraph 2.6), we interrupted the experiments for those compounds showing to have higher cytotoxicity than Icaridin and DEET as soon as the results were available. For this reason, the number of volunteers differs among the compounds.
The average time until protection which was higher than 95% protection time was considered for each compound. Moreover, for the compounds tested on at least three volunteers, the complete (100%) protection time was also estimated (SPSS 28.01.0) using the Kaplan–Meier survivor function procedure.[22]

Row | SMILES | Protection efficacy PE% (Aedes albopictus [1]; 0.081 µg/cm2) | Protection efficacy PE% (Aedes albopictus [1]; 0.17 µg/cm2) | Protection efficacy PE% (Aedes albopictus [1]; 0.33 µg/cm2) | Protection efficacy PE% (Aedes albopictus [1]; 0.5 µg/cm2) | Protection efficacy PE% (Aedes albopictus [1]; 0.83 µg/cm2) | Protection efficacy PE% (Aedes albopictus [1]; 1.7 µg/cm2) | Protection efficacy PE% (Aedes albopictus [1]; 8.3 µg/cm2) | Protection efficacy PE% (Aedes albopictus [1]; 16.7 µg/cm2) | Protection efficacy PE% (Aedes albopictus [1]; 83.3 µg/cm2) | 100% PE (Aedes albopictus [1]) | Protection efficacy (dose to obtain complete protection (100%) from bite attempts) (Aedes albopictus [1]) | Protection time PE% (Aedes albopictus [2]; 0.17mg/cm2, 0 min) | Protection time PE% (Aedes albopictus [2]; 0.17mg/cm2, 1 h) | Protection time PE% (Aedes albopictus [2]; 0.17mg/cm2, 2 h) | Protection time PE% (Aedes albopictus [2]; 0.17mg/cm2, 3 h) | Protection time PE% (Aedes albopictus [2]; 0.17mg/cm2, 4 h) | Protection time PE% (Aedes albopictus [2]; 0.17mg/cm2, 5 h) | Protection time PE% (Aedes albopictus [2]; 0.17mg/cm2, 6 h) | Average PT >95% (% coefficient of variation) (Aedes albopictus [2]) | Estimated 100% PT (complete protection time, mean±SE) (Aedes albopictus [2]) | also measured
1 | CCCCCCCC1OCC(CO)O1 (mixture of isomers) [9a] | 0% | 33.33% | 72.85% | 74.69% | 82.72% | 90.12% | 100% | 100% | 100% | 8.3 µg/cm2 | 8.3 μg/cm^2 | 100% | 99.77% | 99.42% | 100% | 100% | 99.61% | 95.75% | 420 (4.5) min | 307 ± 53 min | Protection time PE% (Aedes albopictus [2]; 0.17mg/cm2, 7 h): 95.88%; Protection time PE% (Aedes albopictus [2]; 0.17mg/cm2, 8 h): 94.12%; Protection time (95% protection) (Aedes albopictus [2]): 7 h
2 | CCCCCCCCCC1OCC(CO)O1 (mixture of isomers) [18a] | 22.98% | 41.74% | 40.93% | 77.98% | 69.25% | 87.67% | 95.83% | 100% | 100% | – | 16.7 μg/cm^2 | 100% | 97.63% | 100% | 98.31% | 99.28% | 99.23% | 97.68% | 420 (2.1) min | 190 ± 50 min | Protection time PE% (Aedes albopictus [2]; 0.17mg/cm2, 7 h): 92.86%; Protection time PE% (Aedes albopictus [2]; 0.17mg/cm2, 8 h): 95.18%
3 | CCCCCC1(CCCCC)OCC(CO)O1 (racemic) [23a] | 33.33% | 54.16% | 97.01% | 76.81% | 76.67% | 93.75% | 88.23% | 98.04% | 100% | 83.3 µg/cm2 | – | 100% | 99.62% | 98.79% | 97.92% | 98.99% | 88.68% | 97.92% | 360 (4.8) min | 240 ± 65 min | Protection time PE% (Aedes albopictus [2]; 0.17mg/cm2, 7 h): 92.53%; Protection time PE% (Aedes albopictus [2]; 0.17mg/cm2, 8 h): 92.80%
4 | CCCCCCCC1(C)OCC(CO)O1 (stereo not shown) [15a] | – | – | – | – | – | – | – | – | – | 16.7 µg/cm2 | 16.7 μg/cm^2 | – | – | – | – | – | – | – | 480 (6.0) min | 380 ± 61 min | pest or weed control at 0.081 µg/cm2, 0.081 µg/cm2 (Aedes albopictus [1]; 0.081 µg/cm2): 7.74%; pest or weed control at 0.17 µg/cm2, 0.17 µg/cm2 (Aedes albopictus [1]; 0.17 µg/cm2): 35.8%; pest or weed control at 0.33 µg/cm2, 0.33 µg/cm2 (Aedes albopictus [1]; 0.33 µg/cm2): 45.9%; pest or weed control at 0.5 µg/cm2, 0.5 µg/cm2 (Aedes albopictus [1]; 0.5 µg/cm2): 54.7%; pest or weed control at 0.83 µg/cm2, 0.83 µg/cm2 (Aedes albopictus [1]; 0.83 µg/cm2): 62.2%; pest or weed control at 1.7 µg/cm2, 1.7 µg/cm2 (Aedes albopictus [1]; 1.7 µg/cm2): 89.4%; pest or weed control at 8.3 µg/cm2, 8.3 µg/cm2 (Aedes albopictus [1]; 8.3 µg/cm2): 98.8%; pest or weed control at 16.7 µg/cm2, 16.7 µg/cm2 (Aedes albopictus [1]; 16.7 µg/cm2): 100%; pest or weed control at 83.3 µg/cm2, 83.3 µg/cm2 (Aedes albopictus [1]; 83.3 µg/cm2): 100%; pest or weed control at 0.17 mg/cm2, 0.17 mg/cm2 (Aedes albopictus [2]; 0.17mg/cm2, 1 h): 100%; pest or weed control at 0.17 mg/cm2, 0.17 mg/cm2 (Aedes albopictus [2]; 0.17mg/cm2, 2 h): 99.6%; pest or weed control at 0.17 mg/cm2, 0.17 mg/cm2 (Aedes albopictus [2]; 0.17mg/cm2, 3 h): 100%; pest or weed control at 0.17 mg/cm2, 0.17 mg/cm2 (Aedes albopictus [2]; 0.17mg/cm2, 4 h): 100%; pest or weed control at 0.17 mg/cm2, 0.17 mg/cm2 (Aedes albopictus [2]; 0.17mg/cm2, 5 h): 97.7%; pest or weed control at 0.17 mg/cm2, 0.17 mg/cm2 (Aedes albopictus [2]; 0.17mg/cm2, 6 h): 98.5%; pest or weed control at 0.17 mg/cm2, 0.17 mg/cm2 (Aedes albopictus [2]; 0.17mg/cm2, 7 h): 97.5%; pest or weed control at 0.17 mg/cm2, 0.17 mg/cm2 (Aedes albopictus [2]; 0.17mg/cm2, 8 h): 96.7%; Protection time (95% protection) (Aedes albopictus [2]): 8 h
5 | CCCCC1(CCCC)OCC(C)(CO)CO1 [16b] | – | – | – | – | – | – | – | – | – | 1.7 µg/cm2 | 1.7 μg/cm^2 | – | – | – | – | – | – | – | 420 (8.0) min | 180 ± 64 min | pest or weed control at 0.081 µg/cm2, 0.081 µg/cm2 (Aedes albopictus [1]; 0.081 µg/cm2): 0%; pest or weed control at 0.17 µg/cm2, 0.17 µg/cm2 (Aedes albopictus [1]; 0.17 µg/cm2): 40.6%; pest or weed control at 0.33 µg/cm2, 0.33 µg/cm2 (Aedes albopictus [1]; 0.33 µg/cm2): 31.2%; pest or weed control at 0.5 µg/cm2, 0.5 µg/cm2 (Aedes albopictus [1]; 0.5 µg/cm2): 68.4%; pest or weed control at 0.83 µg/cm2, 0.83 µg/cm2 (Aedes albopictus [1]; 0.83 µg/cm2): 94.7%; pest or weed control at 1.7 µg/cm2, 1.7 µg/cm2 (Aedes albopictus [1]; 1.7 µg/cm2): 100%; pest or weed control at 8.3 µg/cm2, 8.3 µg/cm2 (Aedes albopictus [1]; 8.3 µg/cm2): 100%; pest or weed control at 16.7 µg/cm2, 16.7 µg/cm2 (Aedes albopictus [1]; 16.7 µg/cm2): 100%; pest or weed control at 83.3 µg/cm2, 83.3 µg/cm2 (Aedes albopictus [1]; 83.3 µg/cm2): 100%; pest or weed control at 0.17 mg/cm2, 0.17 mg/cm2 (Aedes albopictus [2]; 0.17mg/cm2, 1 h): 98.6%; pest or weed control at 0.17 mg/cm2, 0.17 mg/cm2 (Aedes albopictus [2]; 0.17mg/cm2, 2 h): 97.5%; pest or weed control at 0.17 mg/cm2, 0.17 mg/cm2 (Aedes albopictus [2]; 0.17mg/cm2, 3 h): 99.5%; pest or weed control at 0.17 mg/cm2, 0.17 mg/cm2 (Aedes albopictus [2]; 0.17mg/cm2, 4 h): 96.3%; pest or weed control at 0.17 mg/cm2, 0.17 mg/cm2 (Aedes albopictus [2]; 0.17mg/cm2, 5 h): 95.1%; pest or weed control at 0.17 mg/cm2, 0.17 mg/cm2 (Aedes albopictus [2]; 0.17mg/cm2, 6 h): 93.7%; pest or weed control at 0.17 mg/cm2, 0.17 mg/cm2 (Aedes albopictus [2]; 0.17mg/cm2, 7 h): 96.2%; pest or weed control at 0.17 mg/cm2, 0.17 mg/cm2 (Aedes albopictus [2]; 0.17mg/cm2, 8 h): 94.6%; Protection time (95% protection) (Aedes albopictus [2]): 7 h
